# Experimental data as given in US20240424019A1, “SHP1 MODIFIED DENDRITIC CELLS AND EXTRACELLULAR VESICLES DERIVED THEREFROM AND ASSOCIATED METHODS” (BOARD OF REGENTS, THE UNIVERSITY OF TEXAS SYSTEM, priority 2021, published 2024).
# Experiments:
# [1] = system: human MoDCs; assay: DC activation markers on human MoDCs by flow cytometry; type: cell-based
# Excerpt: Human leukocyte concentrate (buffy coat) was collected from healthy blood donor volunteers by MD Anderson Blood Donor Center. Written informed consent was obtained from all participating blood donors and the use of anonymized leftover specimens for scientific purposes was approved by the Ethics Committee of the MD Anderson Cancer Center. For the generation of monocyte-derived dendritic cells (MoDCs), peripheral blood of healthy individuals was applied to a Ficoll gradient (BD), and mononuclear cells were freshly isolated and cultured in the dish in a humidified incubator for 1 hour to let monocytes adhere. After removing the medium with non-adherent cells, the adherent monocytes were collected through vigorous pipetting. […]
# We assessed the expression of co-stimulatory molecules on human MoDCs treated with indicated dietary components and nutritional supplements including VitE (50 μg/ml). […] The mean fluorescence intensity (MFI) of each molecule was normalized to the MFI of the vehicle-treated group measured by flow cytometry. We then quantitated DC activation markers CD40, CD86, and HLA-DR on human MoDCs treated with vehicle or VitE (50 μg/ml) for 48 h in the presence of LPS (100 ng/ml), as calculated by relative mean fluorescence intensity (MFI) compared to controls.
# [2] = target: T1, SHP1 (Mus musculus, UniProt P29351); assay: SHP1 tyrosine phosphatase activity in LPS-activated BMDCs; type: cell-based; details: VitE 50 μg/ml vs vehicle, LPS 100 ng/ml stimulation
# T1 construct: We immunoprecipitated SHP1 from the vehicle or VitE-treated DC2.4 cells or BMDCs with a monoclonal SHP1 antibody; endogenous in cells
# T1 sequence (P29351 whole entry): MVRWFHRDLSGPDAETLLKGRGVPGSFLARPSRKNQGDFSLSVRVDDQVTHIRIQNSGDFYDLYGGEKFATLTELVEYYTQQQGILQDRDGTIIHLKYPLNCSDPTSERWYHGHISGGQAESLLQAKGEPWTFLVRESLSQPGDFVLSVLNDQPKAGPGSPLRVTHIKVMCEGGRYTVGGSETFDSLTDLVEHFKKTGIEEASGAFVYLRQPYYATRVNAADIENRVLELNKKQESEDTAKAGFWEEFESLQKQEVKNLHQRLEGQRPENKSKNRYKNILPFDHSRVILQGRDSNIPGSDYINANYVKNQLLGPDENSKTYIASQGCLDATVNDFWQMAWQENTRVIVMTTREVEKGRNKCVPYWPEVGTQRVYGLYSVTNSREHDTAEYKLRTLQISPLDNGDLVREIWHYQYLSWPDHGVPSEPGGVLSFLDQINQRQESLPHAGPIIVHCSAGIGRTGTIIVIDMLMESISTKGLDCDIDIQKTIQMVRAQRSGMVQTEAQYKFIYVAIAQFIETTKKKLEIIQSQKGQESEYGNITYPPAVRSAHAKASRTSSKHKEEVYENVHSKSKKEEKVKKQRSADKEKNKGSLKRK
# Excerpt: FIG. 3A: […] FIG. 3B: t-SNEs by CyTOF and quantification comparing the intensity of […]-SHP1 in TADCs from the vehicle-or VitE-treated EMT6 tumors at day 15 post-implantation. FIG. 3C: Top, SHP1 knockdown in BMDCs was effective. Bottom, CFSE-dilution analysis of OT-1 T cells co-cultured with OVA protein-pulsed BMDCs (ratio 10:1) with knockdown of SHP1 by […]6 versus siCtrl (n=3). Right, quantification of OT-1 T-cell numbers under the indicated condition. FIG. 3D: The binding of VitE to purified SHP1 is analyzed by microscale thermophoresis (MST) binding assay. […] FIG. 3E: Relative tyrosine phosphatase activity of SHP1 immunoprecipitated from LPS (100 ng/ml)-activated DC2.4 cells in the presence of indicated doses of VitE (mean of triplicates). FIG. 3F: SHP1 tyrosine phosphatase activity in LPS (100 ng/ml)-activated BMDCs (n=6) treated with vehicle-or VitE (50 μg/ml). Error bars, s.e.m. ns, no significant. *P<0.05, **P<0.01. ***P<0.001, ****P<0.0001. Bone marrow (BM) was harvested from C57BL/6J, BALB/Cj mice by flushing femurs, tibias, and humeri with DCs culture medium. […] We assessed the phosphatase activity of SHP1 by using the RediPlate 96 EnzChek Tyrosine Phosphatase Assay Kit (ThermoFisher). […] We placed beads into RediPlate wells and incubated them for 30 min at 25° C. before reading them for fluorescence. […]
structure (smiles),measurement,setting,value
"Cc1c(C)c2c(c(C)c1O)CC[C@@](C)(CCC[C@H](C)CCC[C@H](C)CCCC(C)C)O2 [VitE, D-α-Tocopherol]",expression of DC activation markers (relative MFI),"[1]; VitE 50 μg/ml 48 h, LPS 100 ng/ml","significantly increased expression of DC activation markers CD40, CD86, HLA-DR"
same,DC activation compared with other common nutritional supplements,"[1]; VitE 50 μg/ml vs VitC, VitD, VitB, VitB2, VitB12, DHA, 48 h then LPS 24 h",most effectively activated DCs
same,SHP1 activity in BMDCs,[2],marked reduction of SHP1 function
